Tested on: NMNAT2
Test: NMNAT2-Hibit nano-luciferase activity in transfected U87MG cells, 25 μM, 24 hours
Format: cell-based
Conditions: NMNAT2-Hibit luc plasmid; for B: compound efficacy (IC50) for NMNAT2 activation; increase in NMNAT2 luciferase activity: 24 hours (Table B); for C: Compound efficacy for NMNAT2 activation; increase in NMNAT2 luciferase activity: 24 hours (Table C)
Method: Selected compounds were tested in vitro. Briefly, U87MG cells were transfected with NMNAT2-Hibit luc plasmid. Cells were treated with a test compound at 25 μM for 24 hours. Cells were then collected and assayed for nano-luciferase activity.

Row | Compound | B: compound efficacy (IC50) for NMNAT2 activation; increase in NMNAT2 luciferase activity | C: Compound efficacy for NMNAT2 activation; increase in NMNAT2 luciferase activity
1 | Cc1ccc(CNC(=O)NCc2noc3ccc(C)cc23)cc1 [Compound 181069] | ++ (“++” >20% and <100% increase in NMNAT2 luciferase activity.) | –
2 | CCCCN(C)CCNC(=O)NCc1noc2ccc(C)cc12 [Compound 181070] | + (“+” <20% increase in NMNAT2 luciferase activity.) | –
3 | Cc1ccc2onc(CNC(=O)NC3CCCC3)c2c1 [Compound 181071] | + (“+” <20% increase in NMNAT2 luciferase activity.) | –
4 | COc1ccc(OC)c(CNC(=O)NCc2noc3ccc(C)cc23)c1 [Compound 181072] | + (“+” <20% increase in NMNAT2 luciferase activity.) | –
5 | Cc1ccc2onc(CNC(=O)NCCN(C)Cc3ccccc3)c2c1 [Compound 181073] | + (“+” <20% increase in NMNAT2 luciferase activity.) | –
6 | Cc1ccc2onc(CNC(=O)Nc3ccccc3C)c2c1 [Compound 181074] | + (“+” <20% increase in NMNAT2 luciferase activity.) | –
7 | CCc1ccccc1NC(=O)NCc1noc2ccc(C)cc12 [Compound 181075] | + (“+” <20% increase in NMNAT2 luciferase activity.) | –
8 | COc1cccc(CNC(=O)NCc2noc3ccc(C)cc23)c1 [Compound 181076] | + (“+” <20% increase in NMNAT2 luciferase activity.) | –
9 | Cc1ccc2onc(CNC(=O)NCc3cccc(Cl)c3)c2c1 [Compound 181077] | ++ (“++” >20% and <100% increase in NMNAT2 luciferase activity.) | –
10 | COc1ccc(NC(=O)NCc2noc3ccc(C)cc23)cc1 [Compound 181078] | + (“+” <20% increase in NMNAT2 luciferase activity.) | –
11 | Cc1ccc2onc(CNC(=O)Nc3ccccc3Cl)c2c1 [Compound 181079] | + (“+” <20% increase in NMNAT2 luciferase activity.) | –
12 | Cc1ccc2onc(CNC(=O)Nc3ccc(Cl)cc3)c2c1 [Compound 181080] | + (“+” <20% increase in NMNAT2 luciferase activity.) | –
13 | Cc1ccc2onc(CNC(=O)NCc3ccccc3Cl)c2c1 [Compound 181081] | + (“+” <20% increase in NMNAT2 luciferase activity.) | –
14 | Cc1ccc2onc(CNC(=O)NCc3ccc(Cl)cc3)c2c1 [Compound 181082] | ++ (“++” >20% and <100% increase in NMNAT2 luciferase activity.) | –
15 | Cc1ccc(CCNC(=O)NCc2noc3ccc(C)cc23)cc1 [Compound 181083] | ++ (“++” >20% and <100% increase in NMNAT2 luciferase activity.) | –
16 | CC(=O)c1cccc(NC(=O)NCc2noc3ccc(C)cc23)c1 [Compound 181084] | + (“+” <20% increase in NMNAT2 luciferase activity.) | –
17 | Cc1ccc2onc(CNC(=O)NC3CCCCC3C)c2c1 (stereo not drawn) [Compound 181085] | + (“+” <20% increase in NMNAT2 luciferase activity.) | –
18 | Cc1ccc2onc(CNC(=O)NCCc3c[nH]c4ccccc34)c2c1 [Compound 181086] | ++ (“++” >20% and <100% increase in NMNAT2 luciferase activity.) | –
19 | Cc1ccc2onc(CNC(=O)N(C)c3ccc(F)cc3)c2c1 [Compound 181087] | + (“+” <20% increase in NMNAT2 luciferase activity.) | –
20 | CCOc1ccc(CCNC(=O)NCc2noc3ccc(C)cc23)cc1 [Compound 181088] | + (“+” <20% increase in NMNAT2 luciferase activity.) | –
21 | CSc1ccc(CCNC(=O)NCc2noc3ccc(C)cc23)cc1 [Compound 181089] | ++ (“++” >20% and <100% increase in NMNAT2 luciferase activity.) | –
22 | Cc1ccc2onc(CNC(=O)NC(C)c3ccccc3)c2c1 (stereo not drawn) [Compound 181090] | + (“+” <20% increase in NMNAT2 luciferase activity.) | –
23 | Cc1cc(C)cc(NC(=O)NCc2noc3ccc(C)cc23)c1 [Compound 181091] | + (“+” <20% increase in NMNAT2 luciferase activity.) | –
24 | Cc1ccc2onc(CNC(=O)NCc3ccccc3)c2c1 [Compound 181092] | + (“+” <20% increase in NMNAT2 luciferase activity.) | –
25 | O=C(Cn1cc(C(=O)C(F)(F)F)c2ccccc21)NCc1ccco1 [Compound 181101] | – | + (“+” <20% increase in NMNAT2 luciferase activity.)
26 | CCc1cccc2c(C(=O)C(F)(F)F)cn(CC(=O)NCc3ccco3)c12 [Compound 181102] | – | + (“+” <20% increase in NMNAT2 luciferase activity.)
27 | O=C(Cn1cc(C(=O)C(F)(F)F)c2cc(Br)ccc21)NCc1ccco1 [Compound 181103] | – | + (“+” <20% increase in NMNAT2 luciferase activity.)

Row | Compound | B: compound efficacy (IC50) for NMNAT2 activation; increase in NMNAT2 luciferase activity | C: Compound efficacy for NMNAT2 activation; increase in NMNAT2 luciferase activity
28 | O=C(CN1C(=O)c2cccc3cccc1c23)NCc1ccco1 [Compound 181104] | – | + (“+” <20% increase in NMNAT2 luciferase activity.)
29 | O=C(Cn1cc(C(=O)C2CC2)c2ccccc21)NCc1ccco1 [Compound 181105] | – | + (“+” <20% increase in NMNAT2 luciferase activity.)
30 | O=C(Cn1cc(C(=O)c2ccccc2)c2ccccc21)NCc1ccco1 [Compound 181106] | – | +++ (“+++” >100% increase in NMNAT2 luciferase activity.)
31 | O=C(Cn1cc(C(=O)C2CCCCC2)c2ccccc21)NCc1ccco1 [Compound 181107] | – | +++ (“+++” >100% increase in NMNAT2 luciferase activity.)
32 | CCC(=O)c1cn(CC(=O)NCc2ccco2)c2ccccc12 [Compound 181108] | – | + (“+” <20% increase in NMNAT2 luciferase activity.)
33 | CC(=O)c1c(C)n(CC(=O)NCc2ccco2)c2ccccc12 [Compound 181109] | – | + (“+” <20% increase in NMNAT2 luciferase activity.)
34 | Cc1c(C=O)c2ccccc2n1CC(=O)NCc1ccco1 [Compound 181110] | – | + (“+” <20% increase in NMNAT2 luciferase activity.)
35 | Cc1cc2ccccc2c(=O)n1CC(=O)NCc1ccco1 [Compound 181112] | – | + (“+” <20% increase in NMNAT2 luciferase activity.)
36 | Cc1ccc2c(c1)n(CC(=O)NCc1ccco1)c(=O)c1cccn12 [Compound 181113] | – | + (“+” <20% increase in NMNAT2 luciferase activity.)
37 | Cc1ccc(Cn2cc(CCCC(=O)NCc3ccco3)c3ccccc32)cc1 [Compound 181114] | – | +++ (“+++” >100% increase in NMNAT2 luciferase activity.)
38 | CCn1cc(CCC(=O)NCc2ccco2)c2ccccc21 [Compound 181115] | – | + (“+” <20% increase in NMNAT2 luciferase activity.)
39 | Cc1ccc(Cn2cc(CCC(=O)NCc3ccco3)c3ccccc32)cc1 [Compound 181116] | – | ++ (“++” >20% and <100% increase in NMNAT2 luciferase activity.)
40 | O=C(CCc1cn(Cc2ccccc2F)c2ccccc12)NCc1ccco1 [Compound 181117] | – | + (“+” <20% increase in NMNAT2 luciferase activity.)
41 | O=C(Cn1c(-c2cccs2)cc2cc(F)ccc21)NCc1ccco1 [Compound 181118] | – | + (“+” <20% increase in NMNAT2 luciferase activity.)
42 | Cc1ccc(CNC(=O)Cn2c(-c3cccs3)cc3cc(F)ccc32)o1 [Compound 181119] | – | + (“+” <20% increase in NMNAT2 luciferase activity.)
43 | Cc1cc(C)n(CC(=O)NCc2ccccc2)c(=O)c1C#N [Compound 181120] | – | + (“+” <20% increase in NMNAT2 luciferase activity.)
44 | Cc1ccc(CNC(=O)Cn2c(C)cc(C)c(C#N)c2=O)cc1 [Compound 181121] | – | + (“+” <20% increase in NMNAT2 luciferase activity.)
45 | Cc1cc(C)n(CC(=O)NCc2ccc(Cl)cc2)c(=O)c1C#N [Compound 181122] | – | + (“+” <20% increase in NMNAT2 luciferase activity.)
46 | Cc1cc(C)n(CC(=O)NCc2ccc(F)cc2)c(=O)c1C#N [Compound 181123] | – | + (“+” <20% increase in NMNAT2 luciferase activity.)
47 | COc1ccc(CNC(=O)Cn2c(C)cc(C)c(C#N)c2=O)cc1 [Compound 181124] | – | + (“+” <20% increase in NMNAT2 luciferase activity.)
48 | COc1cccc(CNC(=O)Cn2c(C)cc(C)c(C#N)c2=O)c1 [Compound 181125] | – | + (“+” <20% increase in NMNAT2 luciferase activity.)
49 | COc1ccccc1CNC(=O)Cn1c(C)cc(C)c(C#N)c1=O [Compound 181126] | – | + (“+” <20% increase in NMNAT2 luciferase activity.)
50 | COc1ccc(CNC(=O)Cn2c(C)cc(C)c(C#N)c2=O)cc1OC [Compound 181127] | – | + (“+” <20% increase in NMNAT2 luciferase activity.)
51 | Cc1cc(C)n(CC(=O)NCc2ccco2)c(=O)c1C#N [Compound 181128] | – | + (“+” <20% increase in NMNAT2 luciferase activity.)
52 | Cc1cc(C)n(CC(=O)NCC2=CC=CC2)c(=O)c1C#N [Compound 181129] | – | + (“+” <20% increase in NMNAT2 luciferase activity.)
53 | Cc1cc(C)n(CC(=O)NCc2ccccc2Cl)c(=O)c1C#N [Compound 181130] | – | + (“+” <20% increase in NMNAT2 luciferase activity.)
54 | Cc1cc(C)n(CC(=O)NCCC(C)C)c(=O)c1C#N [Compound 181131] | – | + (“+” <20% increase in NMNAT2 luciferase activity.)
